Reference: ChEMBL document CHEMBL5506042, “Discovery of the Clinical Candidate IDOR-1117-2520: A Potent and Selective Antagonist of CCR6 for Autoimmune Diseases” (J Med Chem, 2024)
Converted amounts (≈) assume the structure as drawn.

Tests used:
[1] = AUC in Beagle dog at 10 mg/kg, po; format: ADME, organism-based, Canis lupus familiaris; settings: in vivo
[2] = Intrinsic clearance in dog liver microsomes at 1 uM measured for 15 mins in presence of NADPH regenerating system by LC-MS/MS analysis; format: ADME, Canis lupus familiaris, Microsome; settings: read-out: CLH
[3] = Clearance in Beagle dog at 1 mg/kg, iv; format: ADME, organism-based, Canis lupus familiaris; settings: in vivo
Cytochrome P450 2D6 = Cytochrome P450 2D6 (Homo sapiens, UniProt P10635); assay: Inhibition of CYP2D6 (unknown origin); format: ADME
[4] = Oral bioavailability in Beagle dog at 10 mg/kg; format: ADME, organism-based, Canis lupus familiaris; settings: in vivo
[5] = Tmax in Beagle dog at 3 mg/kg, po; format: ADME, organism-based, Canis lupus familiaris; settings: in vivo
[6] = Intrinsic clearance in human hepatocytes in presence of ABT measured per million cells; format: ADME, cell-based, Hepatocyte; settings: with ABT, read-out: CLH
[7] = Cmax in Beagle dog at 3 mg/kg, po; format: ADME, organism-based, Canis lupus familiaris; settings: in vivo
[8] = AUC in Beagle dog at 1 mg/kg, iv; format: ADME, organism-based, Canis lupus familiaris; settings: in vivo
Cytochrome P450 3A4 [9] = biological target: T1, Cytochrome P450 3A4 (Homo sapiens, UniProt P08684); assay: Induction of CYP3A4 (unknown origin); format: ADME
[10] = AUC in Beagle dog at 3 mg/kg, po; format: ADME, organism-based, Canis lupus familiaris; settings: in vivo
[11] = Apparent permeability across apical to basolateral side in dog MDCK-II cells; format: ADME, cell-based, Canis lupus familiaris
[12] = Clearance in Wistar rat at 3 mg/kg, iv; format: ADME, organism-based; settings: in vivo
Cytochrome P450 3A4 [13] = biological target: T1, Cytochrome P450 3A4; assay: Time dependent inhibition of CYP3A4 (unknown origin); format: ADME
[14] = Volume of distribution at steady state in Beagle dog at 1 mg/kg, iv; format: ADME, organism-based, Canis lupus familiaris; settings: in vivo, read-out: Vdss
[15] = Cmax in Beagle dog at 1 mg/kg, iv; format: ADME, organism-based, Canis lupus familiaris; settings: in vivo
[16] = Intrinsic clearance in human hepatocytes measured per million cells; format: ADME, cell-based, Hepatocyte; settings: read-out: CLH
Cytochrome P450 2C9 = Cytochrome P450 2C9 (Homo sapiens, UniProt P11712); assay: Inhibition of CYP2C9 (unknown origin); format: ADME
[17] = Half life in Wistar rat at 3 mg/kg, iv; format: ADME, organism-based; settings: in vivo
[18] = Oral bioavailability in Wistar rat at 100 mg/kg; format: ADME, organism-based; settings: in vivo
[19] = Fraction unbound in human plasma at 1 uM by rapid equilibrium dialysis based LC-MS/MS analysis; format: ADME, cell-free
Cytochrome P450 3A4 [20] = biological target: T1, Cytochrome P450 3A4; assay: Inhibition of CYP3A4 (unknown origin); format: ADME
[21] = Oral bioavailability in Beagle dog at 3 mg/kg; format: ADME, organism-based, Canis lupus familiaris; settings: in vivo
[22] = Tmax in Wistar rat at 100 mg/kg, po; format: ADME, organism-based; settings: in vivo
HepaRG = assay: Cytotoxicity against human HepaRG cells assessed as leakage of intracellular LDH at 100 uM incubated for 24 hrs by spectrophotometry; format: toxicity, cell-based
[23] = Solubility of the compound in aqueous medium at pH <[…]; format: physicochemical
[24] = AUC in Wistar rat at 3 mg/kg, iv; format: ADME, organism-based; settings: in vivo
[25] = Intrinsic solubility of the compound at pH >11.5 using amorphous form of sample; format: physicochemical; settings: read-out: Intrinsic_solubility
[26] = AUC in Wistar rat at 100 mg/kg, po; format: ADME, organism-based; settings: in vivo
[27] = Tmax in Beagle dog at 1 mg/kg, iv; format: ADME, organism-based, Canis lupus familiaris; settings: in vivo
[28] = Cmax in Wistar rat at 100 mg/kg, po; format: ADME, organism-based; settings: in vivo
[29] = Solubility of the compound at pH <[…] at 37 degC; format: physicochemical
[30] = Half life in Beagle dog at 1 mg/kg, iv; format: ADME, organism-based, Canis lupus familiaris; settings: in vivo
[31] = biological target: T2, Solute carrier organic anion transporter family member 1B1 (Homo sapiens, UniProt Q9Y6L6); assay: Inhibition of OATP1B1 (unknown origin)
T2 sequence (Q9Y6L6 whole entry): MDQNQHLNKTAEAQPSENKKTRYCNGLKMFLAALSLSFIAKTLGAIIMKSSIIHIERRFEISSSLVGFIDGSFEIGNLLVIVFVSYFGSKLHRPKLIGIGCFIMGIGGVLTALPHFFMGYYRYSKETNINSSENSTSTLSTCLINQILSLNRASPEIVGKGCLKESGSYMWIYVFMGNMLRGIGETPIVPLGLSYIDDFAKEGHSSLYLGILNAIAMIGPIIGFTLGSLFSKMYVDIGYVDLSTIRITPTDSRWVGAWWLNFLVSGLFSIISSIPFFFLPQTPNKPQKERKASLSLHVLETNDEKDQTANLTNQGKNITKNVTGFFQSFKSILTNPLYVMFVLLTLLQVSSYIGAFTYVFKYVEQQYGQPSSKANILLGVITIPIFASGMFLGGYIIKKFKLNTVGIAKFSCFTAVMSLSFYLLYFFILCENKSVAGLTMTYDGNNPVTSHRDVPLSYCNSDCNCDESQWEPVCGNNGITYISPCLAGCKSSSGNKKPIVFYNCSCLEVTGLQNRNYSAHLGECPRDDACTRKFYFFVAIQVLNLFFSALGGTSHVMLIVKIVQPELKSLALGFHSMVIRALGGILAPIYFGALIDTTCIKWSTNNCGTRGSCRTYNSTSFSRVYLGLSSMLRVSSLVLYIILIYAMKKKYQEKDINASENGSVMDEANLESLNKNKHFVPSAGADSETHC

[32] = Fraction unbound in dog plasma at 1 uM by rapid equilibrium dialysis based LC-MS/MS analysis; format: ADME, cell-free, Canis lupus familiaris
[33] = Intrinsic clearance in human liver microsomes at 1 uM measured for 15 mins in presence of NADPH regenerating system measured per mg protein by LC-MS/MS analysis; format: ADME, Microsome; settings: read-out: CLH
[34] = biological target: ATP-dependent translocase ABCB1 (Homo sapiens, UniProt P08183); assay: Inhibition of human MDR1
[35] = Volume of distribution at steady state in Wistar rat at 3 mg/kg, iv; format: ADME, organism-based; settings: in vivo, read-out: Vdss
[36] = biological target: T3, Solute carrier organic anion transporter family member 1B3 (Homo sapiens, UniProt Q9NPD5); assay: Inhibition of OATP1B3 (unknown origin)
T3 sequence (Q9NPD5 whole entry): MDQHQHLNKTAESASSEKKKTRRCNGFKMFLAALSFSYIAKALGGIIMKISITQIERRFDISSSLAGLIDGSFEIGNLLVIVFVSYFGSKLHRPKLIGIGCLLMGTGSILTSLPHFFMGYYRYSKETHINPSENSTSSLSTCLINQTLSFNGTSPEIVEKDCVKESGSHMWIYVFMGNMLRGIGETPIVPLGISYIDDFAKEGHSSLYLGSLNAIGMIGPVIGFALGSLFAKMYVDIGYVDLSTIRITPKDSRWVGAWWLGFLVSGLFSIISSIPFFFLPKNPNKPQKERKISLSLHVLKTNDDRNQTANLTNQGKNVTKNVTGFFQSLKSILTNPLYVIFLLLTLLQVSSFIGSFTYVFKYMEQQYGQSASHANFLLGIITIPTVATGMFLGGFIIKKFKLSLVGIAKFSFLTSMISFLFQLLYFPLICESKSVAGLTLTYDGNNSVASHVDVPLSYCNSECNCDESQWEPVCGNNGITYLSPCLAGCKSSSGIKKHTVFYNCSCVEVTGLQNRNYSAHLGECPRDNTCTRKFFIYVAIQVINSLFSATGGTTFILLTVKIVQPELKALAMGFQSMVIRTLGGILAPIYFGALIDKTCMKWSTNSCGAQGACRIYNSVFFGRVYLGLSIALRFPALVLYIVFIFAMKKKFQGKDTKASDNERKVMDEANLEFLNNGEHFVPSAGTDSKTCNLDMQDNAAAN

T1 sequence (P08684 whole entry): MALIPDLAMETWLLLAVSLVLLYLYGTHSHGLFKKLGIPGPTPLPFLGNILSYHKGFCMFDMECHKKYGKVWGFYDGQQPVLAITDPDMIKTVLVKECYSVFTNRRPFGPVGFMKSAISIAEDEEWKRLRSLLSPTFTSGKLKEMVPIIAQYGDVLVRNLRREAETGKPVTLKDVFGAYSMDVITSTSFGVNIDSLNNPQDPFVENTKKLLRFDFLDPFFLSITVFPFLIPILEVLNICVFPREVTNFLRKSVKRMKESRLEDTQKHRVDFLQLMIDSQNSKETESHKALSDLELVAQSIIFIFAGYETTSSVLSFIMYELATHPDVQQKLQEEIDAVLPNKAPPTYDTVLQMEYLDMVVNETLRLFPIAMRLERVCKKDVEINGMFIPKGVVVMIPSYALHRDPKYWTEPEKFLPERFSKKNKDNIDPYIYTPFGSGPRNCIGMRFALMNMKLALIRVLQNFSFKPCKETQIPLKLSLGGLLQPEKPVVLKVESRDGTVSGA
Chain of Cytochrome P450 2C9 (P11712 whole entry): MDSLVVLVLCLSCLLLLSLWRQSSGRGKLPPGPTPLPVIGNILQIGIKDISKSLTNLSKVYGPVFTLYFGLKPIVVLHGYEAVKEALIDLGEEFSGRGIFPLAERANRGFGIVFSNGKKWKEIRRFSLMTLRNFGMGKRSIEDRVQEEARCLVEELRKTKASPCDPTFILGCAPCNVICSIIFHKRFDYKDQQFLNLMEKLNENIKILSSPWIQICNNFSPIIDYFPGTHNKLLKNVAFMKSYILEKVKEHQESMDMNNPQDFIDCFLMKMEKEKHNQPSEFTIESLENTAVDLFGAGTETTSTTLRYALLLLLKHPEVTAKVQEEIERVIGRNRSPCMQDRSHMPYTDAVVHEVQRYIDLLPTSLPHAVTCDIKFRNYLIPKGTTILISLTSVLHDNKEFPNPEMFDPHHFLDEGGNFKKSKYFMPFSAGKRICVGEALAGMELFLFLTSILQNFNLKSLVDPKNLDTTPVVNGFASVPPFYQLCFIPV
Chain of ATP-dependent translocase ABCB1 (P08183 whole entry): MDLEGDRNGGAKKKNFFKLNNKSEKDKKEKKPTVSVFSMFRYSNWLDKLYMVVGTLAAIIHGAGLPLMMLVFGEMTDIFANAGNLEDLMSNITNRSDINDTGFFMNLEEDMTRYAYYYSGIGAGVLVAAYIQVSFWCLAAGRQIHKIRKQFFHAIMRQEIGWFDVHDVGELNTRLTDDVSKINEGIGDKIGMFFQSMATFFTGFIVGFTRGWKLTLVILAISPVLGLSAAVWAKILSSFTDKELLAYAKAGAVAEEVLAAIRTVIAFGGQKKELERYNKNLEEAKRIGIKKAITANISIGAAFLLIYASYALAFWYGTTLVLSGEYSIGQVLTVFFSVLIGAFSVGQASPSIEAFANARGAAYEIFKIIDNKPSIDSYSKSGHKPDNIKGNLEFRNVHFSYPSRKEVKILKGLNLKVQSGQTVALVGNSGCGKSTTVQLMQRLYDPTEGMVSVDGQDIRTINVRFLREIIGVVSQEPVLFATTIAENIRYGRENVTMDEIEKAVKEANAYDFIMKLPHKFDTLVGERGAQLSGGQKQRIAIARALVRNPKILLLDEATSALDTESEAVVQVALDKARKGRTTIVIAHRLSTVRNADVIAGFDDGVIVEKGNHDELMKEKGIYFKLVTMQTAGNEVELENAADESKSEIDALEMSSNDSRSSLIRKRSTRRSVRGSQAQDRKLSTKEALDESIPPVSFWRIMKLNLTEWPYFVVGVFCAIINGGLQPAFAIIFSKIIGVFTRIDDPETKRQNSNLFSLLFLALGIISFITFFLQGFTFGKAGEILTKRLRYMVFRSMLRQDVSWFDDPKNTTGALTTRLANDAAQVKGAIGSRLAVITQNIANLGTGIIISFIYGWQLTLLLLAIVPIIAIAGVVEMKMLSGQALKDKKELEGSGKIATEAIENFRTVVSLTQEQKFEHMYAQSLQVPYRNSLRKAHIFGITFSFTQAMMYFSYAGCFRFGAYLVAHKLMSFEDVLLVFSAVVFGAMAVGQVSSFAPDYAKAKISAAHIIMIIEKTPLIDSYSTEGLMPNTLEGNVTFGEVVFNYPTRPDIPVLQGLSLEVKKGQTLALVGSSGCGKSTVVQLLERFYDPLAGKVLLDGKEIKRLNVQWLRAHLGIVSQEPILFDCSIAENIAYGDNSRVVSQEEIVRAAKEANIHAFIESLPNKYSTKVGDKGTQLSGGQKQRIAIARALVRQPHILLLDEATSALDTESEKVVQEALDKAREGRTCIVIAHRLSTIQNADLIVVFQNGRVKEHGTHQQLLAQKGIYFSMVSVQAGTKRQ
Chain of Cytochrome P450 2D6 (P10635 whole entry): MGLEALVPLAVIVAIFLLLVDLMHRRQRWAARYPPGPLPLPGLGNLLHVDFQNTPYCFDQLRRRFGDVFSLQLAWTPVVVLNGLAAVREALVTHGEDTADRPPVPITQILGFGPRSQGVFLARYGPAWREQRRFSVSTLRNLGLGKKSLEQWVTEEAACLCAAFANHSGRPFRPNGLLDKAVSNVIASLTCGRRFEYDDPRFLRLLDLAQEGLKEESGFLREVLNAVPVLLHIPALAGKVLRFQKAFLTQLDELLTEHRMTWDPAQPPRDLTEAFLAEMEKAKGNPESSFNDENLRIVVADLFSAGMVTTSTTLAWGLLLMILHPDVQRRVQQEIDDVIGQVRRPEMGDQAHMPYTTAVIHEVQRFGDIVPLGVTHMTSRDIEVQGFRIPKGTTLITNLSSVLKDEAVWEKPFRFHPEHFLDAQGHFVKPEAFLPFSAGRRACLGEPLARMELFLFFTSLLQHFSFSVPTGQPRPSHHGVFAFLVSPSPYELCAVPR

AUC [1]: 4.16 µg·h/mL | microsomal CLint at […], 1 µM [2]: 17 µL/min/mg | clearance [3]: 2.28 L/h/kg | IC50 (Cytochrome P450 2D6): 0.15 µM | bioavailability [4]: 95% | Tmax [5]: 48 min | hepatocyte CLint [6]: < 2 µL/min/1e6 cells | Cmax [7]: 0.956 µg/mL | AUC [8]: 0.436 µg·h/mL | Activity (Cytochrome P450 3A4 [9]): Not Active | AUC [10]: 0.332 µg·h/mL | Papp A→B [11]: 3 nm/s | clearance [12]: 6.6 L/h/kg | TDI (Cytochrome P450 3A4 [13]): Not Active | Vd [14]: 11 L/kg | Cmax [15]: 0.103 µg/mL | hepatocyte CLint [16]: 3.6 µL/min/1e6 cells | IC50 (Cytochrome P450 2C9): > 50 µM | half-life [17]: 216 min | bioavailability [18]: 19% | fraction unbound at 1 µM [19]: 0.35 | IC50 (Cytochrome P450 3A4 [20]): > 50 µM | bioavailability [21]: 25% | Tmax [22]: 18 min | solubility [23]: > 100 mg/mL | AUC [24]: 0.443 µg·h/mL | solubility [25]: 0.1 mg/mL (≈ 0.23 mM) | AUC [26]: 2.77 µg·h/mL | Tmax [27]: 48 min | Cmax [28]: 0.822 µg/mL | solubility [29]: > 10 mg/mL | half-life [30]: 282 min | IC50 [31]: > 50 µM | fraction unbound at 1 µM [32]: 0.33 | microsomal CLint at […], 1 µM [33]: < 10 µL/min/mg | IC50 [34]: 19 µM | Vd [35]: 23 L/kg | IC50 [36]: > 50 µM
SMILES: CC(C)c1ccc([C@](O)(c2cccc(-c3noc(C(C)(C)O)n3)c2)C2(C)CN(C)C2)cc1
Activity (HepaRG): Non-Toxic
